For ten compounds, B2 activity and B1 activity results are on record in patent US7109197B2, “N-phenyl-4-(4-pyridyl)-2-pyrimidineamine derivatives” (Syngenta Crop Protection, Inc., priority 2000, dated 2006).

The subject of one assay is Phytophthora infestans. The class given is in vivo.
The next assay has as its system Puccinia graminis. Format: in vivo.
Where [1] appears, read: Puccinia graminis on wheat cv. Arina, 0.02% active substance spray (residual) or 0.002% soil (systemic), variant not stated.

SMILES strings stand for the structures. Read-outs that look alike come from different tables or passages of the source.

`CNc1cc(-c2ccnc(Nc3cccc(Cl)c3)n2)ccn1` [Compound 64]: the B2 activity result in the assay with Phytophthora infestans (in vivo) is “+ (key: +: the activity observed in the corresponding test system is 70% or more)”.

Take `OCCCNc1cc(-c2ccnc(Nc3cccc(Cl)c3)n2)ccn1` [Compound 46]: the B1 activity result in the assay on Puccinia graminis (setting [1]) is “+ (the activity observed in the corresponding test system is 70% or more)”.

As for `CC(C)Nc1cc(-c2ccnc(Nc3cccc(Cl)c3)n2)ccn1` [Compound 68], the B1 activity result in the assay on Puccinia graminis (in vivo) was “+ (key: +: the activity observed in the corresponding test system is 70% or more)”.

`CCNc1cc(-c2ccnc(Nc3cccc(Cl)c3)n2)ccn1` [Compound 60]: the B1 activity result in the assay with Puccinia graminis (in vivo) is “+ (key: +: the activity observed in the corresponding test system is 70% or more)”.

`CC(CO)Nc1cc(-c2ccnc(Nc3cccc(Cl)c3)n2)ccn1` (centres unmarked) [Compound 39]: in the assay on Puccinia graminis (setting [1]), the B1 activity entry was “+ (the activity observed in the corresponding test system is 70% or more)”.

Regarding `Clc1cccc(Nc2nccc(-c3ccnc(NC4CCOC4)c3)n2)c1` (centres unmarked) [Compound 2], in the assay with Puccinia graminis (setting [1]), the B1 activity entry was “+ (the activity observed in the corresponding test system is 70% or more)”.

On to `Clc1cccc(Nc2nccc(-c3ccnc(NCCCOc4ncccn4)c3)n2)c1` [Compound 94], for which, in the assay with Puccinia graminis (setting [1]), the B1 activity entry is listed as “+ (the activity observed in the corresponding test system is 70% or more)”.

For `Nc1cc(-c2ccnc(Nc3cccc(Cl)c3)n2)ccn1` [Compound 58], the B1 activity result with Puccinia graminis (in vivo) was “+ (key: +: the activity observed in the corresponding test system is 70% or more)”.

Regarding `CCC(CO)Nc1cc(-c2ccnc(Nc3cccc(Cl)c3)n2)ccn1` (centres unmarked) [Compound 31], the B2 activity result in the assay with Phytophthora infestans (Phytophthora infestans on tomato cv. Roter Gnom, 0.02% active substance spray (residual) or 0.002% soil (systemic), variant not stated) is “+ (the activity observed in the corresponding test system is 70% or more)”. Further, the B1 activity entry in the assay on Puccinia graminis (setting [1]) was “+ (the activity observed in the corresponding test system is 70% or more)”.

For the compound `Clc1cccc(Nc2nccc(-c3ccnc(NCC4CCCO4)c3)n2)c1` (centres unmarked) [Compound 75], the B1 activity result with Puccinia graminis (setting [1]) is given as “+ (the activity observed in the corresponding test system is 70% or more)”.
